Assay results as given in US20230181581A1, “CIRCULATING B CELL SUBPOPULATIONS IN INDOLENT B CELL LYMPHOMA” (Alexion Pharmaceuticals, Inc., priority 2020, published 2023).
“And” between values parts separate entries of the source, which are not always exact repeats. Equal entries are not always repeated. “Also recorded” adds a separate entry of the source.

Tests used:
Assay type in all cases: in vivo, human
[1] = tested on: patients with indolent B cell lymphoma (iNHL); test: Phase IIa study: clinical response (best response) to single agent cerdulatinib in r/r iNHL patients grouped by baseline B cell subsets; conditions: 30 mg BID
Description: (§1) This example describes a phase IIa study designed to determine the safety, efficacy, pharmacokinetics, and pharmacodynamics of cerdulatinib at the selected phase II dose of 30 mg BID, dosed in 28 day cycles, in patients with r/r B or T cell malignancies.
(§2) Up to 50 patients were enrolled in 5 cohorts; aggressive lymphoma, iNHL, CLL/SLL, PTCL (all receiving single agent cerdulatinib), and iNHL with cerdulatinib in combination with anti-CD20 therapy. Patients remained on drug until discontinuation due to progressive disease (PD), adverse event (AE), withdrawal of consent (WC), or at the discretion of the treating physician.
(§3) Forty patients with iNHL were enrolled in a cohort receiving single agent cerdulatinib. From this cohort, 30 ml of whole blood was collected from each patient at pre-dose at baseline (C1), cycle 2 day 1 (C2), cycle 3 day 1 (C3), and cycle 6 day 1 (C6) in 10 ml mononuclear cell protection tubes (CPT tubes, BD Bioscience, San Jose, CA) and immediately centrifuged to separate mononuclear cells from plasma and red blood cells at each clinical site. At each time point, tubes were shipped for same day delivery to Caprion Biosciences, Montreal Canada, for preparation and live cell freezing of peripheral blood mononuclear cells (PBMC) by ficoll gradient centrifugation using standard procedures. Banked PBMC’s were stored at -80° C. until 5-8 patient samples through cycle 6 were obtained to enable batched flow cytometry analysis of B cell subsets for each patient over time.
A PCA analysis of the data was performed to identify subgroups of patients characterized by a common B cell phenotype. Subsequent analysis of the results of the PCA by hierarchical clustering was performed.

[2] = tested on: patients with indolent B cell lymphoma (iNHL); test: Phase IIa study: patient disposition (discontinuation, treatment duration) on single agent cerdulatinib; conditions: r/r iNHL, 30 mg BID
Description: as §1
as §2, with “physician. […]” for “physician.”

[3] = tested on: circulating B cell subsets; test: B cell subpopulation analysis of patient PBMC by flow cytometry over time on cerdulatinib
Description: as §3
PBMC’s were thawed and rested overnight in RPMI containing 10% fetal bovine serum. Cells were then stained with a cocktail containing Aqua live/dead cell stain (Life Technologies, Carlsbad, CA), and the following antibodies all obtained from BD Biosciences; CD19 PE-Cy7, CD20 BUV395, HLA-DR APC-Cy7, CD27 BV786, IgD PE, CD10 BV650, CD38 BV711, CD138 BV421, IgG BV605, and IgM APC. Cells were stained for 1 hour at room temperature, washed in phosphate buffered saline containing 0.5% bovine serum albumin, and subjected to flow cytometry using the BD Cantos. A maximum number of events was collected, the median number of total B cells collected was 18,789. The B cell subset gating strategy is described in FIG. 1.
Live B cells were then gated based on aqua viability stain and CD19. IgD and CD27 delineated double negative (DN), naïve, switched memory (SM), and non-switched memory (NSM). Within the naive cell area transitional B cells were identified based on CD10 expression. Within the SM area IgG and IgM switched B cells were identified. Plasma cells were identified based on high CD27 expression and CD138. Percent lymphocytes of total live PBMC’s were also calculated. All gating and calculation of B cell subset frequencies either from the total B cell gate or the immediate parent gate of a B cell subset were calculated using Flow Jo software (Tree Star, Inc., Ashland, OR), and analyzed.

[4] = iNHL patients, baseline (C1) vs cycles 2, 3, 6, FIG. 5A

CCS(=O)(=O)N1CCN(c2ccc(Nc3ncc(C(N)=O)c(NC4CC4)n3)cc2)CC1 [cerdulatinib, 4-(cyclopropylamino)-2-((4-(4-(ethylsulfonyl)piperazin-1-yl)phenyl)amino)pyrimidine-5-carboxamide]
Best Response CR, number of patients ([1]; G1 (N=9)): 1.00 | Best Response CR, percent of patients ([1]; G1 (N=9)): 11.1% | Best Response PD, number of patients ([1]; G1 (N=9)): 1.00 | Best Response PD, percent of patients ([1]; G1 (N=9)): 11.1% | Best Response PR, number of patients ([1]; G1 (N=9)): 1.00 | Best Response PR, percent of patients ([1]; G1 (N=9)): 11.1% | Best Response SD, number of patients ([1]; G1 (N=9)): 2.00 | Best Response SD, percent of patients ([1]; G1 (N=9)): 22.2% | ORR (overall response rate), percent of patients ([1]; G1 (N=9)): 22% and 22.2% | ORR + clinical benefit, number of patients ([1]; G1 (N=9)): 4.00 | ORR + clinical benefit, percent of patients ([1]; G1 (N=9)): 44.4% | ORR, number of patients ([1]; G1 (N=9)): 2.00 | Best Response CR, number of patients ([1]; G2 (N=16)): 5.00 | Best Response CR, percent of patients ([1]; G2 (N=16)): 31.3% | Best Response PD, number of patients ([1]; G2 (N=16)): 0 (0%) | Best Response PD, percent of patients ([1]; G2 (N=16)): 0 (0%) | Best Response PR, number of patients ([1]; G2 (N=16)): 8.00 | Best Response PR, percent of patients ([1]; G2 (N=16)): 50.0% | Best Response SD, number of patients ([1]; G2 (N=16)): 1.00 | Best Response SD, percent of patients ([1]; G2 (N=16)): 6.3% | ORR (overall response rate), percent of patients ([1]; G2 (N=16)): 81% and 81.3% | ORR + clinical benefit, number of patients ([1]; G2 (N=16)): 14.0 | ORR + clinical benefit, percent of patients ([1]; G2 (N=16)): 87.5% | ORR, number of patients ([1]; G2 (N=16)): 13.0 | Best Response CR, number of patients ([1]; G2 + G3 (N=29)): 6.00 | Best Response CR, percent of patients ([1]; G2 + G3 (N=29)): 20.7% | Best Response PD, number of patients ([1]; G2 + G3 (N=29)): 3.00 | Best Response PD, percent of patients ([1]; G2 + G3 (N=29)): 10.3% | Best Response PR, number of patients ([1]; G2 + G3 (N=29)): 14.0 | Best Response PR, percent of patients ([1]; G2 + G3 (N=29)): 48.3% | Best Response SD, number of patients ([1]; G2 + G3 (N=29)): 4.00 | Best Response SD, percent of patients ([1]; G2 + G3 (N=29)): 13.8% | ORR (overall response rate), percent of patients ([1]; G2 + G3 (N=29)): 69.0% | ORR + clinical benefit, number of patients ([1]; G2 + G3 (N=29)): 24.0 | ORR + clinical benefit, percent of patients ([1]; G2 + G3 (N=29)): 82.8% | ORR, number of patients ([1]; G2 + G3 (N=29)): 20.0 | Best Response CR, number of patients ([1]; G3 (N=13)): 1.00 | Best Response CR, percent of patients ([1]; G3 (N=13)): 7.7% | Best Response PD, number of patients ([1]; G3 (N=13)): 3.00 | Best Response PD, percent of patients ([1]; G3 (N=13)): 23.1% | Best Response PR, number of patients ([1]; G3 (N=13)): 6.00 | Best Response PR, percent of patients ([1]; G3 (N=13)): 46.2% | Best Response SD, number of patients ([1]; G3 (N=13)): 3.00 | Best Response SD, percent of patients ([1]; G3 (N=13)): 23.1% | ORR (overall response rate), percent of patients ([1]; G3 (N=13)): 53.8% | ORR + clinical benefit, number of patients ([1]; G3 (N=13)): 10.0 | ORR + clinical benefit, percent of patients ([1]; G3 (N=13)): 76.9% | ORR, number of patients ([1]; G3 (N=13)): 7.00 | Best Response CR, number of patients ([1]; Total (N=38)): 7.00 | Best Response CR, percent of patients ([1]; Total (N=38)): 18.4% | Best Response PD, number of patients ([1]; Total (N=38)): 4.00 | Best Response PD, percent of patients ([1]; Total (N=38)): 10.5% | Best Response PR, number of patients ([1]; Total (N=38)): 15.0 | Best Response PR, percent of patients ([1]; Total (N=38)): 39.5% | Best Response SD, number of patients ([1]; Total (N=38)): 6.00 | Best Response SD, percent of patients ([1]; Total (N=38)): 15.8% | ORR (overall response rate), percent of patients ([1]; Total (N=38)): 57.9% | ORR + clinical benefit, number of patients ([1]; Total (N=38)): 28.0 | ORR + clinical benefit, percent of patients ([1]; Total (N=38)): 73.7% | ORR, number of patients ([1]; Total (N=38)): 22.0 | Discontinuation due to AE (adverse event), number of patients ([2]; G1 (N=9)): 4.00 | Discontinuation due to AE (adverse event), percent of patients ([2]; G1 (N=9)): 44.4% | Discontinuation due to PD (progressive disease), number of patients ([2]; G1 (N=9)): 1.00 | Discontinuation due to PD (progressive disease), percent of patients ([2]; G1 (N=9)): 11.1% | Discontinuation due to AE (adverse event), number of patients ([2]; G2 (N=16)): 1.00 | Discontinuation due to AE (adverse event), percent of patients ([2]; G2 (N=16)): 6.3% | Discontinuation due to PD (progressive disease), number of patients ([2]; G2 (N=16)): 6.00 | Discontinuation due to PD (progressive disease), percent of patients ([2]; G2 (N=16)): 37.5% | Discontinuation due to AE (adverse event), number of patients ([2]; G2 + G3 (N=29)): 3.00 | Discontinuation due to AE (adverse event), percent of patients ([2]; G2 + G3 (N=29)): 10.3% | Discontinuation due to PD (progressive disease), number of patients ([2]; G2 + G3 (N=29)): 11.0 | Discontinuation due to PD (progressive disease), percent of patients ([2]; G2 + G3 (N=29)): 37.9% | Discontinuation due to AE (adverse event), number of patients ([2]; G3 (N=13)): 2.00 | Discontinuation due to AE (adverse event), percent of patients ([2]; G3 (N=13)): 15.4% | Discontinuation due to PD (progressive disease), number of patients ([2]; G3 (N=13)): 5.00 | Discontinuation due to PD (progressive disease), percent of patients ([2]; G3 (N=13)): 38.5% | Discontinuation due to AE (adverse event), number of patients ([2]; Total (N=38)): 7.00 | Discontinuation due to AE (adverse event), percent of patients ([2]; Total (N=38)): 18.4% | Discontinuation due to PD (progressive disease), number of patients ([2]; Total (N=38)): 12.0 | Discontinuation due to PD (progressive disease), percent of patients ([2]; Total (N=38)): 31.6% | CD10 and CD38 expression on transitional B cells over time ([3]; iNHL patients on cerdulatinib, FIG. 5B representative Group 1 patient): loss of CD10 and CD38 expression | Frequency of B cells of lymphocytes over time [3, 4]: did not change | Frequency of CD10 negative (non-transitional) naïve B cells over time [3, 4]: rise and increase | Frequency of total naïve B cells over time [3, 4]: did not change | Frequency of transitional (CD10+) B cells of total B cells over time [3, 4]: decreased; also recorded: induces loss of transitional B cell phenotype | Frequencies of switched memory or double negative B cells over time ([3]; iNHL patients, baseline (C1) vs cycles 2, 3, 6, FIG. 8): no meaningful impact; also recorded: does not impact | Impact on the measured B cell populations ([3]; iNHL patients, over a period of 6 months on therapy): very little impact
